According to article PMC3602154 (PLoS ONE, 2013):
Where two headings read alike, the source gives them in different places.

Experiments:
5-HT1D = 5-HT1D (Homo sapiens, UniProt P28221); assay: PDSP radioligand binding, serotonin receptor 5-HT1D
From the text: (§1) [17] and http://pdsp.med.unc.edu/UNC-CH%20Protocol%20Book.pdf.

5-HT6 = 5-HT6 (Homo sapiens, UniProt P50406); assay: PDSP radioligand binding, serotonin receptor 5-HT6
From the text: as §1

A4B2 [1] = biological target: T1, A4B2 (Rattus norvegicus, UniProt P09483+P12390); assay: PDSP radioligand binding, nicotinic receptor α4 ß2
From the text: as §1

GABAA = assay: PDSP radioligand binding, GABA-A; conditions: Table S1; unit inferred
From the text: as §1

Alpha2A = biological target: T2, Alpha2A (Homo sapiens, UniProt P08913); assay: PDSP radioligand binding, adrenoceptor α2A
T2 sequence (P08913 1-465): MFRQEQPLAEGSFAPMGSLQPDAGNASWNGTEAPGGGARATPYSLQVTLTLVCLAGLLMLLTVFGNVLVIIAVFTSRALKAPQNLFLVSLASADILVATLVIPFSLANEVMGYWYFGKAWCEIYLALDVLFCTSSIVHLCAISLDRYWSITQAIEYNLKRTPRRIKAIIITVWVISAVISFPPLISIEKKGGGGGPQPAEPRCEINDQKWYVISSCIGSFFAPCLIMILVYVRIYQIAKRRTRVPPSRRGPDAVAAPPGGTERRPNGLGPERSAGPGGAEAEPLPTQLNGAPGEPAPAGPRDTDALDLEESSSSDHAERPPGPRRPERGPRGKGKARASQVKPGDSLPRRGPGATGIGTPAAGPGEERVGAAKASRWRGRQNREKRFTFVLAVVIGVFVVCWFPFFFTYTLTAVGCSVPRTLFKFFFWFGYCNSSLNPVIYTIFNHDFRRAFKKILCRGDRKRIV
From the text: as §1

5-HT2A = 5-HT2A (Homo sapiens, UniProt P28223); assay: PDSP radioligand binding, serotonin receptor 5-HT2A
From the text: as §1

KOR = KOR (Homo sapiens, UniProt P41145); assay: PDSP radioligand binding, opioid receptor KOR
From the text: as §1

5-HT1B = 5-HT1B (Homo sapiens, UniProt P28222); assay: PDSP radioligand binding, serotonin receptor 5-HT1B
From the text: as §1

[2] = biological target: NMDA Receptor (MK-801 binding site); assay: PDSP radioligand binding, NMDA receptor
From the text: as §1

Beta2 = Beta2 (Homo sapiens, UniProt P07550); assay: PDSP radioligand binding, adrenoceptor ß2
From the text: as §1

5-ht1e = 5-ht1e (Homo sapiens, UniProt P28566); assay: PDSP radioligand binding, serotonin receptor 5-HT1E
From the text: as §1

Alpha1D = biological target: T3, Alpha1D (Homo sapiens, UniProt P25100); assay: PDSP radioligand binding, adrenoceptor α1D
T3 sequence (P25100 1-572): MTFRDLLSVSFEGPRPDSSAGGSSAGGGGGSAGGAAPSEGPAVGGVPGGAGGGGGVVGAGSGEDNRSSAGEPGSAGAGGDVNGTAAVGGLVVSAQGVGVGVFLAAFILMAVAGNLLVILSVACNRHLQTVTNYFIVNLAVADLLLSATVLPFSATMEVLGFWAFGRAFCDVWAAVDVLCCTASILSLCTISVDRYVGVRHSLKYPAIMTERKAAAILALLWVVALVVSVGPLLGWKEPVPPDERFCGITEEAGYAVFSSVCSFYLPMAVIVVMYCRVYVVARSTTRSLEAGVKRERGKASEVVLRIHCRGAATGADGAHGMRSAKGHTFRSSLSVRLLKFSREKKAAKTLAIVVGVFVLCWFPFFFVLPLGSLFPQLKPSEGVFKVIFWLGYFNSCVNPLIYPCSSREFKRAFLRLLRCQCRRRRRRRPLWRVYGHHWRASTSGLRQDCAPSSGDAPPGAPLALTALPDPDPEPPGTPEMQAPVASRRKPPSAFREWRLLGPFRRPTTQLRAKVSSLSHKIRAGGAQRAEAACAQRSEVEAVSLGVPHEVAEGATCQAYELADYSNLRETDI
From the text: as §1

5-HT3 = biological target: T4, 5-HT3 (Homo sapiens, UniProt P46098); assay: PDSP radioligand binding, serotonin receptor 5-HT3
T4 sequence (P46098 24-478): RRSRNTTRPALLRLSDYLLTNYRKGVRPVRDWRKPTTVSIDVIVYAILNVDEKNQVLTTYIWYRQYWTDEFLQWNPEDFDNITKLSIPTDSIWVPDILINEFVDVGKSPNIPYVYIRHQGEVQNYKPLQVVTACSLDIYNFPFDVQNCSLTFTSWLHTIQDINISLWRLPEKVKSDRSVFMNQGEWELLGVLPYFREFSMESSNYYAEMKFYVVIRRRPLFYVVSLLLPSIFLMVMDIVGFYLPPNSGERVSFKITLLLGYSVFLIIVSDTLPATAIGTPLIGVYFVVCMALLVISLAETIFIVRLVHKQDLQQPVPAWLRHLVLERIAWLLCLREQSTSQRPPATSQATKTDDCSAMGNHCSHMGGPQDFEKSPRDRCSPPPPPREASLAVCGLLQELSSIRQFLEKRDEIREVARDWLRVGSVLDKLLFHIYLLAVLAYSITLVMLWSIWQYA
From the text: as §1

Alpha2B = biological target: T5, Alpha2B (Homo sapiens, UniProt P18089); assay: PDSP radioligand binding, adrenoceptor α2B
T5 sequence (P18089 1-450): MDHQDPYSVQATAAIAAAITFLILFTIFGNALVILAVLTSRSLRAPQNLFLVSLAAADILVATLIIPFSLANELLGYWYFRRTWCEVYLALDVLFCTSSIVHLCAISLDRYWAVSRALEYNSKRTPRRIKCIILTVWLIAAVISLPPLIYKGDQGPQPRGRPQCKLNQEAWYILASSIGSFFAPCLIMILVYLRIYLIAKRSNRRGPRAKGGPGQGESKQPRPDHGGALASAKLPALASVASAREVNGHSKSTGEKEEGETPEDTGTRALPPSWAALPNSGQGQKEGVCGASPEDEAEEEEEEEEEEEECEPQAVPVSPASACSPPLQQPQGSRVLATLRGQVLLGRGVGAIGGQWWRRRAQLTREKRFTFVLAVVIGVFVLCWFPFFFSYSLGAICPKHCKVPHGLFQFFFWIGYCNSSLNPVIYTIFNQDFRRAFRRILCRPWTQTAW
From the text: as §1

A4B2 [3] = biological target: T1, A4B2; assay: PDSP nicotinic receptor A4B2**; assay type: binding
From the text: as §1

A3B4 = A3B4 (Rattus norvegicus, UniProt P04757+P12392); assay: PDSP radioligand binding, nicotinic receptor α3 ß4
From the text: as §1

Beta3 = Beta3 (Homo sapiens, UniProt P13945); assay: PDSP radioligand binding, adrenoceptor ß3
From the text: as §1

CB2 = CB2 (Homo sapiens, UniProt P34972); assay: PDSP radioligand binding, cannabinoid CB-2
From the text: as §1

[4] = Table 2, read-out: NMDA (Ki) (converted)

5-HT1B, sequence (P28222 whole entry, species assumed): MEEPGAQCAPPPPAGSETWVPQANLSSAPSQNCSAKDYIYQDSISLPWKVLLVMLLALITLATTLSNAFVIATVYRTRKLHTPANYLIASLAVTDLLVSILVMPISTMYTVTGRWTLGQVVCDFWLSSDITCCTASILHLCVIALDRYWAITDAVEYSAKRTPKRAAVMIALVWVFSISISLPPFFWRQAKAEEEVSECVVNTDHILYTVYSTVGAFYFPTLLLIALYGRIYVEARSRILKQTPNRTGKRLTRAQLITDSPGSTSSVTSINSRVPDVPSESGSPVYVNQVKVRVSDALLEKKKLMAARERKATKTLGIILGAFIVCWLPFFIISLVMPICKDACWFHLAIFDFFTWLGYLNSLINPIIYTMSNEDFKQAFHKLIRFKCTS
Beta2, sequence (P07550 whole entry): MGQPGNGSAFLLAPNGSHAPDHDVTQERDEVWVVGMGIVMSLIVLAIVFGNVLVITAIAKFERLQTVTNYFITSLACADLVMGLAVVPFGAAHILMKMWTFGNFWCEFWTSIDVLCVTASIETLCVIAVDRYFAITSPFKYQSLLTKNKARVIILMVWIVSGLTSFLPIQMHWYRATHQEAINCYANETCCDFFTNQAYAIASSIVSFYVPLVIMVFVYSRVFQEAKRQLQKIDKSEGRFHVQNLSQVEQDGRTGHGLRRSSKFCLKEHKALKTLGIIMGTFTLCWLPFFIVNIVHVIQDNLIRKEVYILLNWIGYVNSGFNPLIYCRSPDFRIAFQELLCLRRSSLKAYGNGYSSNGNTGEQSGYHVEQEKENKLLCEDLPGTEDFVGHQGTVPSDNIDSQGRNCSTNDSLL
A3B4, sequence (P04757 26-499): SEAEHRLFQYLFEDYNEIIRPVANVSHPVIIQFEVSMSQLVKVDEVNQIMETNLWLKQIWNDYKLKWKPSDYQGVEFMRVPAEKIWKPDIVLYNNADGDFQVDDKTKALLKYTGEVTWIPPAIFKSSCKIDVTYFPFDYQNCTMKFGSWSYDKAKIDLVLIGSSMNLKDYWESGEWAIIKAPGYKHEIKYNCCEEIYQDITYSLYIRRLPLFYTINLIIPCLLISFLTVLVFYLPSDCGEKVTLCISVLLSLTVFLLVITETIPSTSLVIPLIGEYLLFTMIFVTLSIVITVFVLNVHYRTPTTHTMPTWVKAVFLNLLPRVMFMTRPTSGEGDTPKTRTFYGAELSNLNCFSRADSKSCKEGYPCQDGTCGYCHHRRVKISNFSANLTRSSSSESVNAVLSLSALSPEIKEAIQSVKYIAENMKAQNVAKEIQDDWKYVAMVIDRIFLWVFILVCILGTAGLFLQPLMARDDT
A3B4, sequence (P12392 21-495): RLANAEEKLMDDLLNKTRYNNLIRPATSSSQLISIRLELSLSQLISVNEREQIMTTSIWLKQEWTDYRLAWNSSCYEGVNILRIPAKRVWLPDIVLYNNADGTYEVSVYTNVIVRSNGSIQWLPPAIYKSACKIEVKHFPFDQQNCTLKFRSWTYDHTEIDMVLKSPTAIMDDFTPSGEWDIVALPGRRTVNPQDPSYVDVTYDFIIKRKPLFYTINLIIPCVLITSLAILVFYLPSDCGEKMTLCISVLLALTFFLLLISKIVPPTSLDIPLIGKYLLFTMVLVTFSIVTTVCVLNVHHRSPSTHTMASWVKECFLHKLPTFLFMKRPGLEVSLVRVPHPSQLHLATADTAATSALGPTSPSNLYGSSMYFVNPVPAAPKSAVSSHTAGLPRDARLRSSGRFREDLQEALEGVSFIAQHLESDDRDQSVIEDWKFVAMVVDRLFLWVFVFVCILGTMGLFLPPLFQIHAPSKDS
5-HT2A, sequence (P28223 whole entry): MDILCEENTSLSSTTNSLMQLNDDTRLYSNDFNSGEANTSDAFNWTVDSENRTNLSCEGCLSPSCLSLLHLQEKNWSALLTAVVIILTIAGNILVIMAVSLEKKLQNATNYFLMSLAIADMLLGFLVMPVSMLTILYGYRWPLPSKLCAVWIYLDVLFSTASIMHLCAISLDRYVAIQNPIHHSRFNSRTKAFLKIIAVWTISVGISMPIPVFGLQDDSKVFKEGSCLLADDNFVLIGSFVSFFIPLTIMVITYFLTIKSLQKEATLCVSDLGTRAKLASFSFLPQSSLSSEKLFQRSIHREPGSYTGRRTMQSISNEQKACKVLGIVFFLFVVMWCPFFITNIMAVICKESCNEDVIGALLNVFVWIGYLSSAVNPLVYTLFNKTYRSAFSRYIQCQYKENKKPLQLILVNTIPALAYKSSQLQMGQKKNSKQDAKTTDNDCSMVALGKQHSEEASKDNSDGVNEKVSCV
CB2, sequence (P34972 whole entry, species assumed): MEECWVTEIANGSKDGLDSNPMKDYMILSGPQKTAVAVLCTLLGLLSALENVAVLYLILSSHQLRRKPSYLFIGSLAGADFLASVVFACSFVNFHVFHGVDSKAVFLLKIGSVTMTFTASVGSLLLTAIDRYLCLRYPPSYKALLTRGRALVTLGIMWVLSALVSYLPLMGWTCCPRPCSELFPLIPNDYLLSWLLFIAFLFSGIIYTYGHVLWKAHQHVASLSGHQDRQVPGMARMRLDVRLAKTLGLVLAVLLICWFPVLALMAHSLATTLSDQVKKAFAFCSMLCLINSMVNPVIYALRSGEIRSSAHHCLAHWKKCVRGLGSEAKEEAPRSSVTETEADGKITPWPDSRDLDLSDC
5-HT6, sequence (P50406 whole entry, species assumed): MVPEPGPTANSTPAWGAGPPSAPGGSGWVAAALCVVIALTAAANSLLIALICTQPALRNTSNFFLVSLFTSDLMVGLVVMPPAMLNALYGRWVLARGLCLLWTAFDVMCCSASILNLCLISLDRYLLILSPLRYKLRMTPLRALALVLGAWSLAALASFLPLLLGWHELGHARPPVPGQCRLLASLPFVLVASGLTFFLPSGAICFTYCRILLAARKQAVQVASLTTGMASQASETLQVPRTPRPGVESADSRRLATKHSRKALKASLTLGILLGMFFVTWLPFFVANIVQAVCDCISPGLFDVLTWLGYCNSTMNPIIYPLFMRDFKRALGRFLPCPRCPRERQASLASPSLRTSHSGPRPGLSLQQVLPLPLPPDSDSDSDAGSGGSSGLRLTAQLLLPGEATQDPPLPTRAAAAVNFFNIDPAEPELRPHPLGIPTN
T1 sequence (P09483 31-630): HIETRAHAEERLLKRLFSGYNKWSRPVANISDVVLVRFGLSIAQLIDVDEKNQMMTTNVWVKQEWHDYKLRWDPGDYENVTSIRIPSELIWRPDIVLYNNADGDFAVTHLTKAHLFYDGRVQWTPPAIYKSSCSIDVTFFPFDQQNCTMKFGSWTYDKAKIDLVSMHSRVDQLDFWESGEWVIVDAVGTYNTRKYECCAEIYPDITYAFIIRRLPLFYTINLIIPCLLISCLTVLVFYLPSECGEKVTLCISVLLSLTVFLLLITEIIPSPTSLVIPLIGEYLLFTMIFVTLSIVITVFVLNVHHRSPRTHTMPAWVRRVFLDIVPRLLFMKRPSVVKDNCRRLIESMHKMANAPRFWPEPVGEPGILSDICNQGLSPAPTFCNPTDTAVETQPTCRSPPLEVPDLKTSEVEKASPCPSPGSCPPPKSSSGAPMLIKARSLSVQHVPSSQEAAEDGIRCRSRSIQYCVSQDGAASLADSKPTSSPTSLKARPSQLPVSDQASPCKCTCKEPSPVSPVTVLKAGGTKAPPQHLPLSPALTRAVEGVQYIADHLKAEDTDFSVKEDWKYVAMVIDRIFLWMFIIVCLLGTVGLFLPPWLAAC
T1 sequence (P12390 25-500): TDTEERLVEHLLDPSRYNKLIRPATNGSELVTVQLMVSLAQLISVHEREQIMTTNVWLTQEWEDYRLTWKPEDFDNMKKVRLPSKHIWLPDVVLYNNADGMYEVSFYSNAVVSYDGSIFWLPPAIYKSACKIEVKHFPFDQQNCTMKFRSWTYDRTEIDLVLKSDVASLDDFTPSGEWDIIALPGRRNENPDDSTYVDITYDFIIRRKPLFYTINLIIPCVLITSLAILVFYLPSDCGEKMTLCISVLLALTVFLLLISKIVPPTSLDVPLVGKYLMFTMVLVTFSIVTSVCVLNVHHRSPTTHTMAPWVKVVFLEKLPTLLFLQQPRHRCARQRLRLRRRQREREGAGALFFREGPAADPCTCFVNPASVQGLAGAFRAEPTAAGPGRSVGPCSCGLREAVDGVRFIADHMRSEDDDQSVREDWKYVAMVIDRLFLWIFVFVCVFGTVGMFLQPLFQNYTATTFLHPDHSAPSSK
Beta3, sequence (P13945 whole entry): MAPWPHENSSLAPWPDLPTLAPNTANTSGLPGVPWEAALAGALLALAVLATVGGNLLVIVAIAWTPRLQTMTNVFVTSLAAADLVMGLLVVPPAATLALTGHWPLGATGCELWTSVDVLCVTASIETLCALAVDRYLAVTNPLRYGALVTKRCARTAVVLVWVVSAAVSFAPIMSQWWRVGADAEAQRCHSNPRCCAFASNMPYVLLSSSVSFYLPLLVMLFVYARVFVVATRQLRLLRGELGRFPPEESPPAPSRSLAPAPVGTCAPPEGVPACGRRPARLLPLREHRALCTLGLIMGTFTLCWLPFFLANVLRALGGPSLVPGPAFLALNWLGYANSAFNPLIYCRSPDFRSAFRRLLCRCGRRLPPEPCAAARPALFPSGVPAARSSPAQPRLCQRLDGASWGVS
KOR, sequence (P41145 whole entry): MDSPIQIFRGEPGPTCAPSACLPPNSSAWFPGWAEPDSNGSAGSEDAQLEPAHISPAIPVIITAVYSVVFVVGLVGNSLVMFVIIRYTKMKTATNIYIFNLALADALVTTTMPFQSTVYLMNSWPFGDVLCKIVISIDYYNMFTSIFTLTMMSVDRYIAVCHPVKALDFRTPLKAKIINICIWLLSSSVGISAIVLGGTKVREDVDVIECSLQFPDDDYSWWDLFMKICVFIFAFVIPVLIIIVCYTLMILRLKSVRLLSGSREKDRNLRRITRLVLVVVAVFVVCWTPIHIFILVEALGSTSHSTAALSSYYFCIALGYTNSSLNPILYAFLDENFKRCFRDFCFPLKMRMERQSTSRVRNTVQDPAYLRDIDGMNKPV

CCNC1(c2cccc(OC)c2)CCCCC1=O (racemic) [Methoxetamine, (RS)-2-(ethylamino)-2-(3-methoxyphenyl)cyclohexanone]
0.338 µM: Ki ([2]; Table S1, unit inferred, read-out: Ki NMDA)
0.337 µM: Ki ([2]; Figure 3, N = 3 separate determinations, read-out: Ki in NMDA receptor assay)
> 10 µM: Ki (5-HT1D) | Ki (5-HT6) | Ki (A4B2 [1]) | Ki (GABAA) | Ki (Alpha2A) | Ki (5-HT2A) | Ki (KOR) | Ki (5-HT1B) | Ki (Beta2) | Ki (5-ht1e) | Ki (Alpha1D) | Ki (5-HT3) | Ki (Alpha2B) | Ki (A4B2 [3]) | Ki (A3B4) | Ki (Beta3) | Ki (CB2)

COc1cccc(C2(N3CCCCC3)CCCCC2)c1 [3-MeO-PCP, 1-[1-(3-methoxyphenyl)cyclohexyl]piperidine]
> 10 µM: Ki (5-HT1D) | Ki (5-HT6) | Ki (A4B2 [1]) | Ki (GABAA) | Ki (5-HT2A) | Ki (KOR) | Ki (5-HT1B) | Ki (Beta2) | Ki (5-ht1e) | Ki (Alpha1D) | Ki (5-HT3) | Ki (Alpha2B) | Ki (A4B2 [3]) | Ki (A3B4) | Ki (Beta3) | Ki (CB2)
0.964 µM: Ki (Alpha2A)
7.69±0.08: NMDA pKi +/− SD ([2]; Table 2)
0.02 µM: Ki [2, 4]

COc1ccc(C2(N3CCCCC3)CCCCC2)cc1 [4-MeO-PCP, 1-[1-(4-methoxyphenyl)cyclohexyl]piperidine]
6.39±0.06: NMDA pKi +/− SD ([2]; Table 2)
> 10 µM: Ki (5-HT1D) | Ki (5-HT6) | Ki (A4B2 [1]) | Ki (GABAA) | Ki (Alpha2A) | Ki (5-HT2A) | Ki (KOR) | Ki (5-HT1B) | Ki (Beta2) | Ki (5-ht1e) | Ki (Alpha1D) | Ki (5-HT3) | Ki (Alpha2B) | Ki (A4B2 [3]) | Ki (A3B4) | Ki (Beta3) | Ki (CB2)
0.404 µM: Ki [2, 4]
